Experimental data as given in patent publication US11510931B2, “Compositions and methods for treating ophthalmic conditions” (MEDICON PHARMACEUTICALS, INC., priority 2016, dated 2022).

Columns and labels:
MMP-1 = MMP-1 levels in cultured human conjunctival cells (ELISA); format: cell-based; conditions: for reduction of MMP-1 secreted into the culture medium: compared to controls; for levels of MMP-1 secreted into the culture medium: mean±SEM
Description: In an in vitro assay with purified MMP-1 (collagenase I) as […] it was shown that PS inhibited collagenase activity with an IC50 of <100 nM. In cultured human conjunctiva cells, PS suppressed MMP-1 by 75%-86%. In the lacrimal glands of rabbits with DED treated with PS eye drops, PS suppressed MMP-9 levels by 27% compared to vehicle treated rabbits (2.20±0.24 vs. 1.66±0.20 ng/mg protein; p<0.05; mean±SEM).
The Mechanism of Action of PS in Dry Eye. Tissue culture, animal and human studies have established inflammation as the core mechanism of DED^8. To determine the mechanism of action of PS in DED the response to PS of several factors known to play an important role in the inflammation associated with DED was explored. They include NF-κB; the cytokines TGF-β, IL-1 β, IL-6 and IL-8; the collagenases MMP-1 and MMP-9; and PGE2. In these studies we used human conjunctival epithelial cells, the Wong-Kilbourne derivative of Chang conjunctival cells (clone 1 to 5c-41 American Type Culture Collection (Manassas, Va.) certified cell line, 20.2).

IL-1β = IL-1β levels in the ILG of rabbits with DED (ELISA); format: in vivo, rabbit
Description: Using this model, we compared the effect of PS to that of cyclosporine and lifitegrast. Rabbits were treated for 6 days with PS as above or cyclosporine 0.05% or lifitegrast 5% eye drops 3×/day. In addition to determining TUBT, osmolarity and STT, we measured the levels of IL-8 and IL-1β in the ILGs of the rabbits harvested at euthanasia. Both of these cytokines are significant mediators of inflammation in DED. As shown in the table below, PS had statistically significant effects on TBUT, tear osmolarity, IL-8 and IL-1β levels. […] Of note, lifitegrast suppressed STT below the levels of the vehicle group and this suppression was statistically significant, but in the opposite direction for a useful therapeutic effect.
Moreover, for all three cytokines PS suppressed their unstimulated levels as well (62%, 84% and 4.7% reduction, respectively). In addition, PS suppressed the levels of IL-8 by 64% and IL-1β (not expressed by the cultured cells) by 61% in the ILG of rabbits treated with PS for 1 week compared to controls treated with vehicle (FIG. 8B). TGF-β was not detectable by the method in ILG homogenates. All these changes were statistically significant (p<0.001-0.04, except for the unstimulated TGF-β).

[1] = tested on: cataract surgery plus LPS-induced ocular inflammation in rabbits; assay: Ocular inflammation after cataract surgery plus intravitreal LPS in rabbits; format: in vivo, rabbit; conditions: PS 3.5% in nanoparticles
Description: The anti-inflammatory effect of PS in New Zealand white rabbits was evaluated following cataract surgery and administration of the proinflammatory bacterial lipopolysaccharide (LPS). Briefly, the lens was removed by phacoemulsification and aspiration and replaced with the hydrophobic acrylic intraocular lens (AR40e, AMO). Upon completion of the operation, 1 μg of LPS dissolved in 10 μl PBS was injected into the vitreous to induce uveitis.
Rabbits were treated with PS 3.5% formulated in nanoparticles or vehicle (nanoparticles without PS) applied topically as eye drops three times per day. The first application was made within 1 h after completion of surgery. The rabbits were examined daily and the aqueous humor (AH) was sampled by needle aspiration on days 1, 3, and 5 following the injection of LPS. The number of infiltrating cells in the AH was determined following standard methods. On day 5, the rabbits were euthanized and the implanted lens was removed and fixed in 2.5% glutaraldehyde and the number of inflammatory cells attached to the lens was examined under a dissecting microscope.

## CCOP(=O)(OCC)OCCCCOC(=O)CC1=C(C)/C(=C/c2ccc([S+](C)[O-])cc2)c2ccc(F)cc21 (stereo not shown) [PS, phosphosulindac]
MMP-1; PS 1×IC50, 2 h
  reduction of MMP-1 secreted into the culture medium: 48%
  levels of MMP-1 secreted into the culture medium: 24.9±0.8
MMP-1; PS 1.5×IC50, 2 h
  reduction of MMP-1 secreted into the culture medium: 55%
  levels of MMP-1 secreted into the culture medium: 21.6±0.8
MMP-1; cultured human conjunctiva cells
  MMP-1 suppression: 75%-86%
IL-1β; Con A DED rabbits, 6 days, eye drops 3×/day, PS nanoparticles, cyclosporine 0.05%, lifitegrast 5%, mean ± SEM
  IL-1β in the ILG: 8.4 ± 1.2 pg/mg protein
IL-1β; rabbits treated with PS for 1 week vs vehicle
  suppression of IL-1β levels in the ILG: 61%
[1]; eye drops three times per day, first 24 h of treatment, FIG. 13
  ocular inflammation (clinical appearance): essentially eliminated
[1]; day 3, eye drops three times per day, FIG. 14
  number of inflammatory cells in aqueous humor (AH): < 70000 mL⁻¹
[1]; day 5
  inflammatory cells attached to the implanted lens: very few or no cells
